From EP3345917A1, “ANTIPROTOZOAL COMPOUNDS” (Bacoba AG, priority 2017, dated 2018)
Non-standard residues stand in square brackets, D forms with d. Residues, ends and D or L forms follow the SMILES beside them. *: point of attachment. Hexenoyl(2E,4S-Me) = CC[C@H](C)/C=C/C(=O)*; Leu(3R-OH) = CC(C)[C@@H](O)[C@H](N)C(=O)O; Gly(octyl) = CCCCCCCC[C@H](N)C(=O)O; X17 = C[C@@H](CN1CCOCC1)N*; Aib = CC(C)(N)C(=O)O; βAla = NCCC(=O)O

How the values were obtained:
[1] = tested on: intracellular Leishmania donovani (L.don. InMac); assay: Intracellular Leishmania donovani assay (L.don. InMac); assay type: cell-based; conditions: In vitro inhibition
Description: Tests were done in triplicate.

[2] = Cytotoxicity assay on L6-cells (Alamar Blue); conditions: rat, Cytotox L6, Cytotoxicity against rat myoblast cells (L6)
Description: (§1) Tests were done in triplicate. IC50 values against the parasites as well as cytotoxic effects against rat myoblast (L6-cells) were determined by serial dilution and repeated twice.
(§2) After 68 h of incubation under humidified 5% CO2 atmosphere, 10 µl of the Alamar blue marker was added to all wells. The plates were incubated for an additional 2 h. […] The IC50S were calculated by Softmax Pro software (Molecular Devices Cooperation, Sunnyvale, CA). […] Cytotoxicity was measured against rat myoblast cells (Cytotox L6).

rat myoblast (L6-cells) = assay: Cytotoxicity assay on L6-cells (Alamar Blue); conditions: read-out: Cytotox L6; Cytotoxicity against rat myoblast cells (L6)
Description: as §1, §2

## CCCCCCCC[C@H](NC(=O)[C@@H]1CCCN1C(=O)/C=C/[C@@H](C)CC)C(=O)N[C@H](C(=O)NC(C)(C)C(=O)N[C@@H](CC(C)C)C(=O)N[C@@H](CC(C)C)C(=O)NC(C)(C)C(=O)NC(C)(C)C(=O)NCCC(=O)N[C@@H](C)CN1CCOCC1)[C@H](O)C(C)C [Compound 5573, (2S)-N-[(1S,2R)-2-hydroxy-3-methyl-1-[(1-methyl-1-{[(1S)-3-methyl-1-{[(1S)-3-methyl-1-{[1-methyl-1-({1-methyl-1-[(2-{[(2S)-1-(morpholin-4-yl)propan-2-yl]carbamoyl}ethyl)carbamoyl]ethyl}carbamoyl)ethyl]carbamoyl}butyl]carbamoyl}butyl]carbamoyl}ethyl)carbamoyl]butyl]-2-{[(2S)-1-[(2E,4S)-4-methylhex-2-enoyl]pyrrolidin-2-yl]formamido}decanamide] ({Hexenoyl(2E,4S-Me)}-P[Gly(octyl)][Leu(3R-OH)][Aib]LL[Aib][Aib][βAla]-X17)
[1]
  IC50: 20.4 nM
[2]
  IC50 at 70 h: 512 nM
Rat myoblast (L6-cells)
  IC50: 738 nM
